The nature of the data set: Fluorescence (chromophoric) properties of 2H-indazole-3-carbaldehyde. It counts as physicochemical. Particulars: FIG. 9D.

On to `O=Cc1[nH]nc2ccccc12` [2H-indazole-3-carbaldehyde], for which the fluorescence wavelength result is given as “about 500 nm”. The “increase in fluorescence as compared to unmodified PAF” value (compared to unmodified PAF) amounted to 100 fold.

For the origin of these results see US20250059229A1, “Compositions and Methods for Selective Labeling of Secondary Amines” (Emory University, priority 2021, published 2025).
